Test results taken from PubChem BioAssay (NCI).
Where “and” joins values, the source holds several entries; their conditions need not be identical. Equal entries are not always repeated.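 Tested at 5 concentrations; 48 h exposure; 96-well plates; endpoints linearly interpolated, else capped at highest concentration. Abbreviation: GI50, concentration required for 50% inhibition of growth. Definition used: TGI = concentration required for complete inhibition of growth.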

How the values were obtained:
Assay in all cases: NCI tumour cell line growth inhibition, 48 h
DLD-1 colon = system: DLD-1 colon
DMS 273 small cell lung = system: DMS 273 small cell lung
XF 498 CNS = system: XF 498 CNS
SNB-78 CNS = system: SNB-78 CNS
KM20L2 colon = system: KM20L2 colon
M19-MEL melanoma = system: M19-MEL melanoma
LXFL 529 NSCLC = system: LXFL 529 NSCLC
HOP-18 NSCLC = system: HOP-18 NSCLC
RXF-631 renal = system: RXF-631 renal
SN12K1 renal = system: SN12K1 renal
P388/ADR leukemia = system: P388/ADR leukemia

Row | Structure (SMILES) | TGI (DLD-1 colon) | TGI (DMS 273 small cell lung) | TGI (XF 498 CNS) | TGI (SNB-78 CNS) | TGI (KM20L2 colon) | TGI (M19-MEL melanoma) | TGI (LXFL 529 NSCLC) | TGI (HOP-18 NSCLC) | TGI (RXF-631 renal) | GI50 (DLD-1 colon) | GI50 (SN12K1 renal) | TGI (SN12K1 renal) | GI50 (DMS 273 small cell lung) | GI50 (XF 498 CNS) | GI50 (P388/ADR leukemia) | TGI (P388/ADR leukemia) | GI50 (SNB-78 CNS) | GI50 (KM20L2 colon) | GI50 (M19-MEL melanoma) | GI50 (HOP-18 NSCLC)
1 | c1ccc2c(c1)nc(NC1CCCC1)c1[nH]c(C3CCCC3)nc12 | > 100 µM | 22.3 µM | 34.4 µM | > 92.7 µM | 20.8 µM | 27.7 µM | 22.8 µM | 45.5 µM | – | – | – | – | – | – | – | – | – | – | – | –
2 | c1ccc2c(c1)CCc1cc3cc4c(nc3nc1-2)-c1ccccc1CC4 | > 100 µM | > 100 µM | – | > 100 µM | – | > 100 µM | > 100 µM | – | – | – | – | – | – | – | – | – | – | – | – | –
3 | NCCNc1cccc2ccccc12 | > 100 µM | > 100 µM | – | > 100 µM | > 100 µM | > 100 µM | > 100 µM | > 100 µM | > 100 µM | – | – | – | – | – | – | – | – | – | – | –
4 | CC(C)(C)C(=O)ON1N=NC2C3CC(OCc4ccccc4)(OCc4ccccc4)C(O3)C21 (configuration not stated) | 44.6 µM | 51.2 µM | 33.5 µM | > 100 µM | 77.5 µM | 30 µM | 25.8 µM | 94.2 µM | 82.1 µM | – | – | – | – | – | – | – | – | – | – | –
5 | Cc1cccc(C2=NC(C)(C)C(C)(C)N=C2c2cccc(C)n2)n1 | > 100 µM | > 100 µM | > 100 µM | > 100 µM | > 100 µM | > 100 µM | > 100 µM | > 100 µM | > 100 µM | – | – | – | – | – | – | – | – | – | – | –
6 | Cc1cccc(NC(=O)C(=O)C(C(=O)c2ccccc2F)C2OC(=O)c3ccccc32)c1Cl (configuration not stated) | > 100 µM | > 100 µM | > 100 µM | > 100 µM | 88.5 µM | > 100 µM | > 100 µM | – | – | – | – | – | – | – | – | – | – | – | – | –
7 | CCSC1=C(C)N(C=NC(C)(C)C)CC1 | > 100 µM | > 100 µM | > 100 µM | > 100 µM | > 100 µM | > 100 µM | > 100 µM | > 100 µM | > 100 µM | – | – | – | – | – | – | – | – | – | – | –
8 | O=[Se](=O)c1ccccc1.O=[Se](=O)c1ccccc1.[Cu] | 40.5 µM | 38.3 µM | 28.9 µM | 17.1 µM | 35.1 µM | 15.2 µM | – | 41.1 µM | – | 18.9 µM | 7.41 µM | 17.6 µM | 20.4 µM | 15.5 µM | 3.99 µM | 24.4 µM | 12.4 µM | 18.3 µM | 5.95 µM | 23.4 µM
9 | NC(=O)C#CC(N)=O | 87.5 µM and 68.3 µM and > 100 µM | 73.1 µM and 106 µM and > 100 µM | – | 72.3 µM and 202 µM and > 100 µM | – | 24.8 µM and 22.4 µM and > 65.8 µM | > 100 µM | 43.5 µM and 33.2 µM | > 100 µM | 26.5 µM and 22.2 µM and 62.5 µM | 14.8 µM | 27.4 µM and 26.7 µM | 23.5 µM and 30.5 µM and > 100 µM | – | – | 875 µM | 22.5 µM and 121 µM | – | 11.8 µM and 10.1 µM and 28.6 µM | –
10 | O=C1Nc2cc([N+](=O)[O-])ccc2NC1/C(=N\Nc1ccccc1)C(O)c1cccc([N+](=O)[O-])c1 (configuration not stated) | > 100 µM | > 100 µM | > 100 µM | > 100 µM | > 100 µM | > 100 µM | > 100 µM | – | > 100 µM | – | – | – | – | – | – | – | – | – | – | –
11 | N#C[S-].[Nd+3].c1ccc(-c2ccccn2)nc1.c1ccc(-c2ccccn2)nc1.c1ccc(-c2ccccn2)nc1 | > 100 µM | 19.5 µM | – | > 100 µM | 6.08 µM | 54 µM | – | – | – | 3.45 µM | – | – | 3.23 µM | – | – | – | 94.2 µM | 2.38 µM | 9.78 µM | –
12 | O=C(N/N=C/c1cc(Cl)cc(Cl)c1[O-])c1ccccc1O.O=C(N/N=C/c1cc(Cl)cc(Cl)c1[O-])c1ccccc1O.[Ni+2] | – | – | – | – | 2.15 µM | – | – | – | – | – | – | – | – | – | – | – | – | 0.794 µM | – | –
13 | Cc1cc(S(=O)(=O)O)c(NC(=O)C(=O)C2C=CCS2(=O)=O)cc1Cl (configuration not stated) | > 100 µM | > 100 µM | > 100 µM | > 100 µM | > 100 µM | > 100 µM | > 100 µM | > 100 µM | – | – | – | – | – | – | – | – | – | – | – | –
14 | C/C(=N\NC(N)=S)C(CN(CC(C)C)CC(C)C)C(=O)Nc1ccc(C)cc1C (configuration not stated) | > 100 µM | > 100 µM | > 100 µM | > 100 µM | > 100 µM | > 100 µM | > 100 µM | > 100 µM | – | – | – | – | – | – | – | – | – | – | – | –
15 | COc1cccc(/C=N/[N-]C(N)=O)c1[O-].[Ni+2].[OH3+].c1cnc2c(c1)ccc1cccnc12 | – | – | – | – | > 100 µM | – | – | – | – | – | – | – | – | – | – | – | – | – | – | –
16 | CN(C)CCSC(=Nc1ccccc1)N1CCCCC1 | 31.5 µM | 31.1 µM | 30 µM | – | 31.7 µM | 31.2 µM | 29.4 µM | 33.5 µM | – | – | – | – | – | – | – | – | – | – | – | –
17 | O=C1c2c(nc3ccccc3c2-c2ccccc2)CN1Nc1ccccn1 | > 100 µM | > 100 µM | > 100 µM | > 42.3 µM | – | > 100 µM | > 100 µM | – | 50.7 µM | – | – | – | – | – | – | – | – | – | – | –
18 | C=C1C(=O)OCC2C(C(=O)O)=CC3C(C)C(C)=CC123 (configuration not stated) | 45.7 µM | 59.6 µM | 24.8 µM | 117 µM | 51.1 µM | 54.6 µM | – | 34.2 µM | – | – | – | 29.6 µM | – | – | – | 21.9 µM | – | – | – | –
19 | COc1cccc(Cc2c3cc(OC)ccc3cc[n+]2C)c1 | > 100 µM | – | 70.7 µM | > 100 µM | > 100 µM | – | > 100 µM | – | – | – | – | – | – | – | – | – | – | – | – | –
